Here are results for 25 compounds from ChEMBL document CHEMBL4706581, “Discovery of methoxy-naphthyl linked N-(1-benzylpiperidine) benzamide as a blood-brain permeable dual inhibitor of acetylcholinesterase and butyrylcholinesterase” (Eur J Med Chem, 2020).

The IC50 is the concentration needed to halve the response being measured. A word on the inhibition: it is how much of the control response was suppressed. A high value points to a response far below the control. A word on the Ki: it is a dissociation constant, usually derived from enzyme kinetics or from competition with a known ligand.

Data set [1] deals with Acetylcholinesterase (Electrophorus electricus, UniProt O42275). In words: Inhibition of electric eel AChE using acetylthiocholine iodide as substrate preincubated for 20 mins followed by substrate addition and measured every minute for 10 mins by DTNB-reagent based Ellman's method. In general terms: DTNB colorimetry detects thiols as they appear.
The target in data set [2] is T1, Cholinesterase (Equus caballus, UniProt P81908). Briefly: Inhibition of equine serum BChE using S-butyrylthiocholine iodide as substrate preincubated for 20 mins followed by substrate addition and measured every minute for 10 mins by DTNB-reagent based Ellman's method.
The target of data set [3] is T2, Acetylcholinesterase (Homo sapiens, UniProt P22303). Briefly: Inhibition of recombinant human AChE.
The next data set is filed under the species Rattus norvegicus. Briefly: Inhibition of rat self-induced Amyloid beta (1 to 42 residues) aggregation at 10 uM incubated for 24 hrs by thioflavin-T fluorescence assay relative to control.
A short description of data set [4]: Effective permeability of compound by PAMPA-BBB assay. Format: ADME. The settings on record: read-out: Peff. On the technique in general: In PAMPA a lipid-coated filter parts donor from acceptor wells.
The target of data set [5] is T1, Cholinesterase. In words: Mixed type inhibition of equine serum BChE assessed as decrease in Vmax and increase in Km using varying level of S-butyrylthiocholine iodide as substrate preincubated for 20 mins followed by substrate addition and measured every minute for 10 mins by Lineweaver-Burk plot analysis.
For data set [6], the target named is T2, Acetylcholinesterase. Briefly: Non-competitive inhibition of recombinant human AChE assessed as decrease in Vmax with constant Km using varying level of acetylthiocholine iodide as substrate preincubated for 20 mins followed by substrate addition and measured every minute for 10 mins by Lineweaver-Burk plot analysis.

Molecules are shown by their SMILES.

T1 sequence (P81908 whole entry): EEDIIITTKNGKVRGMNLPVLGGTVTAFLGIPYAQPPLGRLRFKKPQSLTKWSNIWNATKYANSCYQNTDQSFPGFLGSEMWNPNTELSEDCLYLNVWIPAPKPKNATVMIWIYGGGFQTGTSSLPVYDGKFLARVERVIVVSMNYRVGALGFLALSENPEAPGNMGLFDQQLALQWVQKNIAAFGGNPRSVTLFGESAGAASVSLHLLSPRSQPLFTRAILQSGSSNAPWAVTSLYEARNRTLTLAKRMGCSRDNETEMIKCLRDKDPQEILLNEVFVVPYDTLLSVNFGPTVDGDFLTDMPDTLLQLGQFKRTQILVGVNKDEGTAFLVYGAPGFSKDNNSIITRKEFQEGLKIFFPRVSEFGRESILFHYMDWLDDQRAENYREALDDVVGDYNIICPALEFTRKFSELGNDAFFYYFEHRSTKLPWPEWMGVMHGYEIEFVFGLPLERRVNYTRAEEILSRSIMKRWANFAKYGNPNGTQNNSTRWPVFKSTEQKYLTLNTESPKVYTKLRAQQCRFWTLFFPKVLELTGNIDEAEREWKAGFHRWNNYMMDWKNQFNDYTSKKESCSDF
Acetylcholinesterase (Electrophorus electricus, UniProt O42275), sequence (O42275 whole entry): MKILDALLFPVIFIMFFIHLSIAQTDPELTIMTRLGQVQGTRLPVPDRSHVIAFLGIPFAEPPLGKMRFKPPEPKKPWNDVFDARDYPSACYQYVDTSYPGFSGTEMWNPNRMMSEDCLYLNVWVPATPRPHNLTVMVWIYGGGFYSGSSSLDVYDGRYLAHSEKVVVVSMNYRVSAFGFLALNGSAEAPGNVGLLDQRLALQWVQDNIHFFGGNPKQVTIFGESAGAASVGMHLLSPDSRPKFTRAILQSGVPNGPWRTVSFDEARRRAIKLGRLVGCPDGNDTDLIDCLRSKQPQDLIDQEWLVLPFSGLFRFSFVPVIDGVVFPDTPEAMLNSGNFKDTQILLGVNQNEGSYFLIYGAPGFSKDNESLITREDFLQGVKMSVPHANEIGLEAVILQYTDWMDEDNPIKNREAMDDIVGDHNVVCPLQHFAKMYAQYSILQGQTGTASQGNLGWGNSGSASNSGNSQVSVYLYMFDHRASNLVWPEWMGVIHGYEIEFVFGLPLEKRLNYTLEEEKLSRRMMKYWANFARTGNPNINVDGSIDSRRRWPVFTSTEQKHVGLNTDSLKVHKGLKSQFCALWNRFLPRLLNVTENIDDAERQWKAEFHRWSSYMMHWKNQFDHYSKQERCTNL
T2 sequence (P22303 whole entry, the tested form may be a part): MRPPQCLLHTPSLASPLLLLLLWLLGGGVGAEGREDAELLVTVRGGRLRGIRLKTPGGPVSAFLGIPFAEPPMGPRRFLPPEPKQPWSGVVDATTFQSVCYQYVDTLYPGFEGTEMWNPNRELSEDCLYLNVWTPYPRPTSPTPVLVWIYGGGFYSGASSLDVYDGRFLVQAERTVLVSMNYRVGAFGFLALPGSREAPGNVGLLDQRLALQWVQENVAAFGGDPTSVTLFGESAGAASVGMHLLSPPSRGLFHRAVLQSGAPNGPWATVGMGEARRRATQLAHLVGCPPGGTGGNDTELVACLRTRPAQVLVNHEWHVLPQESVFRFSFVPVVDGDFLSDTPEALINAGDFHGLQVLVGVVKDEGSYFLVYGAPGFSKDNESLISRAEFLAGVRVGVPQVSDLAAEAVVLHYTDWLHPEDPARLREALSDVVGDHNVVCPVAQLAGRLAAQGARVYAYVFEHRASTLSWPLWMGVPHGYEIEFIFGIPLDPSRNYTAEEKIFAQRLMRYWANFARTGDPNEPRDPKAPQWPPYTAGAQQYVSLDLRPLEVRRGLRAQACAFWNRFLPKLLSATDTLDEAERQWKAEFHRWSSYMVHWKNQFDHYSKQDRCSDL

For `COc1ccc(C(=O)Nc2cc[n+](Cc3ccccc3)cc2)cc1OC`, half-maximal inhibition against Acetylcholinesterase [1] (IC50) required 420 nM.

Regarding `COc1ccc2cc(C(=O)NCCc3cc[n+](Cc4ccccc4Cl)cc3)ccc2c1`, the results for the half-inhibitory concentration (IC50) on Cholinesterase [2] and on Acetylcholinesterase [1] were 830 nM and 500 nM, respectively. On to `O=C(Nc1cc[n+](Cc2ccccc2)cc1)c1ccc(-c2ccccc2)cc1`, for which the results for the half-inhibitory concentration (IC50) at Cholinesterase [2] and at Acetylcholinesterase [1] were over 1000 nM and 770 nM, respectively. Turning to `COc1ccc2cc(C(=O)Nc3cc[n+](Cc4ccccc4C)cc3)ccc2c1`, the values for the IC50 against Cholinesterase [2] and at Acetylcholinesterase [1] were over 1000 nM and 435 nM, respectively. For `N#Cc1ccc(C(=O)Nc2cc[n+](Cc3ccccc3)cc2)cc1`, on Acetylcholinesterase [1], the IC50 is 469 nM.

With `COc1ccc2cc(C(=O)NCCc3cc[n+](Cc4ccccc4C)cc3)ccc2c1`, the IC50 on Cholinesterase [2] was over 1000 nM; on Acetylcholinesterase [1] it was 1080 nM. The like results for `O=C(Nc1cc[n+](Cc2ccccc2)cc1)c1ccc(OCc2ccccc2)cc1` were, in that order, over 1000 nM and 360 nM. The like results for `COc1ccc2cc(C(=O)NCCc3cc[n+](Cc4ccccc4[N+](=O)[O-])cc3)ccc2c1` were, in that order, over 1000 nM and 280 nM. Turning to `COc1ccc2cc(C(=O)NCCC3CCN(Cc4ccccc4)CC3)ccc2c1`, the IC50 at Acetylcholinesterase [3] was found to be 170 nM. Moreover, the inhibition in the data set listed under Rattus norvegicus was determined as 25%. Besides, the Papp in data set [4] was 6.9 ×10⁻⁶ cm/s. For the same compound, the Ki turned out to be 150 nM on Cholinesterase [5] and 210 nM at Acetylcholinesterase [6]. With `COc1ccc2cc(C(=O)Nc3cc[n+](Cc4ccccc4[N+](=O)[O-])cc3)ccc2c1`, the IC50 against Cholinesterase [2] was over 1000 nM; against Acetylcholinesterase [1] it was 480 nM.

As for `COc1ccc2cc(C(=O)NCCc3cc[n+](Cc4ccc([N+](=O)[O-])cc4)cc3)ccc2c1`, the figures for the IC50 on Cholinesterase [2] and at Acetylcholinesterase [1] were over 1000 nM and 740 nM, respectively. The like results for `COc1ccc2cc(C(=O)NCCc3cc[n+](Cc4ccccc4F)cc3)ccc2c1` were, in that order, over 1000 nM and 280 nM. As to `COc1ccc2cc(C(=O)Nc3cc[n+](Cc4ccccc4Cl)cc3)ccc2c1`, the IC50 was over 1000 nM at Cholinesterase [2] and 340 nM against Acetylcholinesterase [1]. The like results for `CCOc1ccc(C(=O)Nc2cc[n+](Cc3ccccc3)cc2)cc1` were, in that order, 12700 nM and 201 nM. Consider `COc1ccc2cc(C(=O)NCCc3cc[n+](Cc4ccccc4)cc3)ccc2c1.[Br-]`, for which the values for the IC50 at Cholinesterase [2] and against Acetylcholinesterase [1] were 680 nM and 770 nM, respectively. In data set [4], the Papp is 1.3 ×10⁻⁶ cm/s.

Take `CC(C)c1ccc(C(=O)Nc2cc[n+](Cc3ccccc3)cc2)cc1`: it took 852 nM to reach half-maximal inhibition on Acetylcholinesterase [1] (IC50). Take `COc1ccc2cc(C(=O)NCCc3cc[n+](Cc4cccc(Cl)c4)cc3)ccc2c1`: the figures for the concentration for half-maximal inhibition (IC50) against Cholinesterase [2] and against Acetylcholinesterase [1] were over 1000 nM and 610 nM, respectively.

Regarding `COc1ccc2cc(C(=O)Nc3cc[n+](Cc4ccccc4)cc3)ccc2c1`, the IC50 against Cholinesterase [2] worked out at 1590 nM; against Acetylcholinesterase [1], 218 nM. In the case of `COc1ccc2cc(C(=O)Nc3cc[n+](Cc4ccc(Cl)cc4)cc3)ccc2c1`, the IC50 at Cholinesterase [2] is over 1000 nM; at Acetylcholinesterase [1], 900 nM.

For the compound `COc1ccc2cc(C(=O)Nc3cc[n+](Cc4ccccc4F)cc3)ccc2c1`, the 50% inhibitory concentration (IC50) on Cholinesterase [2] was over 1000 nM; against Acetylcholinesterase [1] it was 210 nM. The like results for `COc1ccc2cc(C(=O)NCCc3cc[n+](Cc4ccc(F)cc4)cc3)ccc2c1` were, in that order, over 1000 nM and 740 nM.

Consider `COc1ccc2cc(C(=O)Nc3cc[n+](Cc4ccc(F)cc4)cc3)ccc2c1`, for which the IC50 was over 1000 nM on Cholinesterase [2] and 210 nM against Acetylcholinesterase [1].

At Acetylcholinesterase [1], `COc1ccc(C(=O)Nc2cc[n+](Cc3ccccc3)cc2)cc1` returned a concentration for half-maximal inhibition (IC50) of 216 nM.

In turn, `O=C(Nc1cc[n+](Cc2ccccc2)cc1)c1ccc2cc(Br)ccc2c1` returned a half-maximal inhibitory concentration (IC50) on Acetylcholinesterase [1] of 1440 nM. In turn, `COc1cc(OC)cc(C(=O)Nc2cc[n+](Cc3ccccc3)cc2)c1` registered an IC50 on Acetylcholinesterase [1] of 202 nM.
